Assay results published in US20090092975A1, “SELECTABLE MARKER” (Mologic Ltd, priority 2005, published 2009).
Where two headings read alike, the source gives them in different places.

Key:
[1] = cited from earlier work
[2] = system: Saccharomyces cerevisiae strain 62 expressing PAD1; format: cell-based; settings: predicted decarboxylation product in headspace; weak acid 0.5 mM, YEPD pH 4, 10 h at 28° C.; 0 = no decarboxylation
Protocol: S. cerevisiae strain 62 (which expresses the PAD1 gene) was cultured for 48 hr in YEPD pH 4, Yeast extract 10 g, Peptone 20 g, Glucose 20 g, at 28° C. in a shake flask, 120 rpm. The stationary-phase cells were inoculated into capped 28 ml McCartney bottles containing 10 mls YEPD pH 4, at 1 million cells per ml. Each bottle also contained one of 70 substrate weak acids at 0.5 mM. Tubes were then shaken for 10 h at 28° C.
1 ml samples of the headspace were passed into stainless-steel thermal desorption tubes, followed by a 10 ml air flush. (Desorption tubes—89 mm×5 mm ID, packed with 200 mg Tenax TA 60-80 mesh, Phase Separations, UK).
Thermal desorption tubes were placed in a Perkin Elmer ATD400 thermal desorption system, and the volatiles transferred to the Gas Chromatograph in a 2 stage process. Primary desorption was 250° C. for 10 min with a helium flow of […]. Using a split ratio of 1:1, volatiles were retained on a cold trap (25 mg Tenax TA) held at −30° C. Secondary desorption was carried out by rapidly heating and holding the cold trap at 250° C. for 2 min, with a helium flow of 20 ml/min and split ratio of 19:1. A DB624 column {30 m×0.32 mm, 1.8 microns film thickness} installed in a Carbo Erba GC800 was used to achieve separation and introduction of the volatile to the mass spectrometer. The column temperature was held at 40° C. for 2 min then increased at 5° C./min to 250° C. The column outlet was coupled via a heated transfer line at 250° C. into the ion source of the mass spectrometer operated at 70 eV in electron ionization (EI) mode. The source temperature was at 200° C. and the detector photomultiplier at 500V. Full scan MS data acquisition was carried out from m/z 30 to 300, with 0.6 sec scan and 0.05 sec inter scan delay.
The results are shown in Table 3, in each case the “predicted product” being the product which would be produced if decarboxylation of the weak acid were to take place.

[3] = system: S. cerevisiae BY4741 (PAD1) and S. cerevisiae YO5833 (Δ pad1); assay: Selection of PAD1-gene containing yeast in broth culture by weak acid; format: cell-based, Saccharomyces cerevisiae; settings: buffered YEPD pH 4.0, 14 days at 25° C., growth by OD 600 nm
Protocol: Flasks were cultured at 25° C. for 14 days, shaken at 120 rpm on an orbital shaker (25 mm orbit). After 14 days, yeast growth was measured by spectrophotometer at 600 nm (Optical Density, OD 600 nm).
Yeast strains S. cerevisiae BY4741 (PAD1) and S. cerevisiae YO5833—Euroscarf (Δ pad1) were separately inoculated at 10^3 cells/ml into 100 ml conical flasks containing 50 mls buffered YEPD pH 4.0 (glycerol 20 g/l, Bacteriological peptone 20 g/l, yeast extract 10 g/l, succinic acid 3 g/l, adjusted to pH 4.0 with potassium hydroxide) each containing higher concentrations of 4-Methylcinnamic acid, 0-0.11 mM. Flasks were cultured for 14 days at 25° C., shaken at 160 rpm on an orbital shaker (25 mm orbit). After 14 days, yeast growth was measured by spectrophotometer at 600 nm (Optical Density, OD 600 nm).

[4] = system: S. cerevisiae BY4741 (PAD1); assay: Selection in agar, growth of PAD1-containing yeast; format: cell-based, Saccharomyces cerevisiae; settings: 4-Methylcinnamic acid 0.096 mM in agar, pH 4.0, 10 days at 25° C.
Protocol: (§1) Buffered YEPD containing 4-Methylcinnamic acid, was prepared as follows: glycerol 20 g/l, Bacteriological peptone 20 g/l, yeast extract […], agar 15 g/l, succinic acid 3 g/l, 4-Methylcinnamic acid 15.55 mg/l (0.096 mM). Agar was sterilised by autoclaving at pH 6.0, cooled to 50° C., adjusted to pH 4.0, then poured into Petri dishes and allowed to set. Agar plates were spread with dilute cultures of S. cerevisiae BY4741 (PAD1) (upper half of plate—FIG. 8), and dilute cultures of S. cerevisiae YO5833—Euroscarf (Δ pad1) on the lower half of the plate.

[5] = system: S. cerevisiae YO5833 (Δ pad1); assay: Selection in agar, growth of Δ pad1 yeast; format: cell-based, Saccharomyces cerevisiae; settings: 4-Methylcinnamic acid 0.096 mM in agar, pH 4.0, 10 days at 25° C.
Protocol: as §1

[6] = system: decarboxylase from mould spores; settings: 1 mM sorbic acid, equimolar 1,3-pentadiene in headspace within 18 hours; cited from earlier work
[7] = Table 1, monocarboxylic weak acids
[8] = Table 2, most preferred weak acids

| Structure (SMILES) | Pka [1, 7] | GCMS Peak area [2] | also measured |
| --- | --- | --- | --- |
| C=CC=CC(=O)O [2,4-Pentadienoic acid] | 4.72 | 107 | Pka [1, 8]: 4.72 |
| CCCCCCCC=CC(=O)O [2-Decenoic acid] | 3.9018 | 0 |  |
| O=C(O)C=Cc1ccccc1O [2-Hydroxy-cinnamic acid] | 4.7 | 0 |  |
| CCCCCCC=CC(=O)O [2-Nonenoic acid] | 3.9148 | 0 |  |
| O=C(O)C=Cc1cccs1 [3-(2-Thienyl)acrylic acid] | 4.2 | 20571 | Pka [1, 8]: 4.2 |
| O=C(O)C=Cc1ccsc1 [3-(3-Thienyl)acrylic acid] | 4.1 | 1586 | Pka [1, 8]: 4.1 |
| O=C(O)C=Cc1ccoc1 [3-Furan-acrylic acid] | 3.9 | 2165 | Pka [1, 8]: 3.9 |
| O=C(O)C=Cc1cccc(O)c1 [3-Hydroxy-cinnamic acid] | 4.6 | 0 |  |
| CCOc1ccc(C=CC(=O)O)cc1 [4-Ethoxycinnamic acid] |  | 227 |  |
| O=C(O)C=Cc1ccc(F)cc1 [4-Fluoro-cinnamic acid] |  | 18699 | concentration range showing good selection for PAD1-containing yeasts [3]: 0.15 to 0.225 mM |
| O=Cc1ccc(C=CC(=O)O)cc1 [4-Formyl-cinnamic acid] |  | 0 |  |
| COc1ccc(C=CC(=O)O)cc1 [4-Methoxy-cinnamic acid] |  | 1899 |  |
| Cc1ccc(C=CC(=O)O)cc1 [4-Methyl-cinnamic acid] |  | 11013 | growth of PAD1-containing yeast cells on agar [4]: formed large colonies; growth of Δ pad1 yeast on agar [5]: barely perceptible; concentration range showing good selection for PAD1-containing yeasts [3]: 0.075 to 0.11 mM |
| O=C(O)C=Cc1ccc([N+](=O)[O-])cc1 [4-Nitro-cinnamic acid] |  | 0 |  |
| O=C(O)C=Cc1ccc(C(F)(F)F)cc1 [4-Trifluoromethyl-cinnamic acid] |  | 1600 |  |
| C=CCCCC(=O)O [5-Hexenoic acid] | 4.81 | 0 |  |
| O=C(O)c1ccccc1 [Benzoic acid] |  | 0 |  |
| O=C(O)/C=C/c1ccc(O)c(O)c1 [Caffeic acid] | 4.7 | 0 |  |
| O=CC=Cc1ccccc1 [Cinnamaldehyde] |  | 0 |  |
| O=C(O)C=Cc1ccccc1 [Cinnamic acid] |  | 17538 |  |
| OCC=Cc1ccccc1 [Cinnamyl alcohol] |  | 0 |  |
| O=C(O)/C=C/c1ccc(O)cc1 [Coumaric acid] |  | 0 |  |
| C/C=C/C(=O)O [Crotonic acid] | 4.17 | 0 |  |
| COc1cc(/C=C/C(=O)O)ccc1O [Ferulic acid] | 4.58 | 0 |  |

| Structure (SMILES) | Pka [1, 7] | GCMS Peak area [2] | also measured |
| --- | --- | --- | --- |
| O=C(O)C=Cc1ccco1 [Furylacrylic acid] |  | 15611 |  |
| CC(C)=CCC/C(C)=C/C(=O)O [Geranic acid] | 4.7211 | 0 |  |
| CCCCCCC(=O)O [Heptanoic acid] | 4.8 | 0 |  |
| CCCCCC(=O)O [Hexanoic acid] |  | 0 |  |
| O=C(O)CCc1ccccc1 [Hydrocinnamic acid] |  | 0 |  |
| O=C(O)C=Cc1c[nH]c2ccccc12 [Indole-acrylic acid] |  | 0 |  |
| O=C(O)C#Cc1ccccc1 [Phenyl-propiolic acid] |  | 0 |  |
| C/C=C/C=C/C(=O)O [Sorbic acid] |  | 8795 | removal of weak acid by decarboxylase [6]: completely removed |
| O=C(O)/C=C/c1c[nH]cn1 [Urocanic acid] |  | 0 |  |
| CCCCC(=O)O [Valeric acid] |  | 0 |  |
| O=C(O)C(F)=Cc1ccccc1 [alpha-fluoro-cinnamic acid] | 4.45 | 2659 | Pka [1, 8]: 4.45 |
| CC(=Cc1ccccc1)C(=O)O [alpha-methyl-cinnamic acid] | 4.45 | 889 | Pka [1, 8]: 4.45 |
| O=C(O)C(=Cc1ccccc1)c1ccccc1 [alpha-phenyl-cinnamic acid] |  | 0 |  |
| CC/C=C\CC(=O)O [cis-3-Hexenoic acid] | 4.608 | 0 |  |
| C=CCC/C=C/C(=O)O [trans, trans-2,6-Heptadienoic acid] | 3.7528 | 0 |  |
| O=C(O)/C=C/c1ccc(Cl)cc1Cl [trans-2,4-Dichloro-cinnamic acid] |  | 4428 |  |
| CCCC/C=C/C(=O)O [trans-2-Heptenoic acid] | 3.7839 | 0 |  |
| CCC/C=C/C(=O)O [trans-2-Hexenoic acid] | 3.8306 | 0 |  |
| CCCCC/C=C/C(=O)O [trans-2-Octenoic acid] | 3.902 | 0 |  |
| CC/C=C/C(=O)O [trans-2-Pentenoic acid] | 4.1578 | 0 |  |
| CC/C=C/CC(=O)O [trans-3-Hexenoic acid] | 4.608 | 0 |  |
| C/C=C/CCC(=O)O [trans-4-Hexenoic acid] | 4.6984 | 0 |  |
| O=C(O)C/C=C/c1ccccc1 [trans-Styrylacetic acid] | 4.688 | 0 |  |
